Source: patent US6117365A, “Phenolic acid amides of hydroxy-substituted benzylamines” (Haarmann & Reimer GmbH, priority 1997, dated 2000)

Experiments:
[1] = DPPH test for the removal of free radicals (activity as free-radical scavengers); conditions: for EC50 (effective relative concentration, c(test compound)/c(DPPH), at which 50% of the free radical DPPH had been removed): DPPH 100 μmol/l in methanol, absorption at 515 nm read until the decrease was less than 2% per hour
Procedure: The activity of example compounds 1 to 16 as free-radical scavengers was compared with that of a traditional free-radical scavenger. The DPPH (1,1-diphenyl-2-picrylhydrazyl) test for the removal of free radicals was used.
DPPH was dissolved in methanol to a concentration of 100 μmol/l. A series of dilutions of the example compounds, vitamin C, α-tocopherol, BHT, ferulic acid and of the naturally occurring N-(2-[4-hydroxyphenyl]ethyl)-4-hydroxy-3-methoxy-E-cinnamamide were prepared in methanol. Methanol was used as the control. 2500 μl of the DPPH solution were mixed with 500 μl of each test solution and the decrease in absorption at 515 nm was read until the decrease was less than 2% per hour. The activity of the test substances as free-radical scavengers was calculated using the following equation:
Activity as free-radical scavenger (%)=100-(absorption of the test
compounds)/(absorption of the control)×100.
The activity as free-radical scavengers (%) in a series of dilutions of test compounds was used to calculate, for each test compound, the effective relative concentration EC50 (based on the starting concentration of DPPH, EC=c (test compound)/c(DPPH)) of a test compound, at which 50% of the free radical DPPH had been removed.

[2] = accelerated autoxidation of lipids by air using a RANCIMAT apparatus (activity as antioxidants); conditions: for AOI (antioxidative index) = IP(with test solution)/IP(control sample): 0.05% of test substance, soy bean oil, 100° C., dry air stream 20 l/h
Procedure: The activity of example compounds 1 to 16 as antioxidants was compared with that of traditional antioxidants. The test system used was the accelerated autoxidation of lipids by air with or without antioxidant using a RANCIMAT apparatus (RANCIMAT is a registered trade mark of Metrohm AG, Herisau, Switzerland).
The example compounds, vitamin C, α-tocopherol, BHT, ferulic acid and the naturally occurring N-(2-[4-hydroxyphenyl]-ethyl)-4-hydroxy-3-methoxy-E-cinnamamide were dissolved in methanol or acetone, and 100 μl of each test solution were added to a 3 g pre-prepared oil sample (soy bean oil, purified over alumina type N). In a control sample, only solvent was added. A constant, dry air stream (20 l/h) was blown through the oil sample, which contained the test solution and was heated to 100° C., and the volatile oxidation products (predominantly short-chain fatty acids such as formic or acetic acid) were collected in a receiver containing water. The conductivity of this aqueous solution was continuously measured and recorded. The oxidation of (unsaturated) fats proceeds only very slowly for some time and then suddenly increases. The time to the increase is referred to as the induction period (IP).
The following equation was used to calculate the antioxidative index (AOI):
AOI=IP(with test solution) /IP(control sample)

[3] = comparison in words with reference substances

EC50 (effective relative concentration, c(test compound)/c(DPPH), at which 50% of the free radical DPPH had been removed) [1]	SMILES	AOI (antioxidative index) = IP(with test solution)/IP(control sample) [2]	action as free-radical scavenger, in words [1, 3]	action as antioxidant, in words [2, 3]
0.270 mol/mol	O=C1O[C@H]([C@@H](O)CO)C(O)=C1O [Vitamin C, L-ascorbic acid, reference compound]	1.17		
0.350 mol/mol	COc1cc(/C=C/C(=O)O)ccc1O [Ferulic acid, ferulic acid, reference compound]	1.79		
0.1 mol/mol	COc1cc(CNC(=O)/C=C/c2ccc(O)c(O)c2)cc(OC)c1O [Example 13, N-(3,5-Dimethoxy-4-hydroxybenzyl)-3,4-dihydroxy-E-cinnamamide]	3.6		
0.119 mol/mol	COc1cc(CNC(=O)CCc2ccc(O)c(O)c2)ccc1O [Example 8, N-(4-Hydroxy-3-methoxybenzyl)-3-(3,4-dihydroxyphenyl)-proyanamide]	13.2		
0.069 mol/mol	O=C(CCc1ccc(O)c(O)c1)NCc1ccc(O)c(O)c1O [Example 10, N-(2,3,4-Trihydroxybenzyl)-3-(3,4-dihydroxyphenyl)-pronanamide]	24.6		
0.1 mol/mol	COc1cc(/C=C/C(=O)NCc2ccc(O)c(O)c2)ccc1O [Example 1, N-(3,4-Dihydroxybenzyl)-4-hydroxy-3-methoxy-E-cinnamamide]	11.41		
0.250 mol/mol	Cc1c(C)c2c(c(C)c1O)CCC(C)(CCCC(C)CCCC(C)CCCC(C)C)O2 (stereo not drawn) [α-Tocopherol, α-tocopherol, reference compound]	5.05		
0.105 mol/mol	COc1cc(CNC(=O)Cc2ccc(O)c(O)c2)ccc1O [Example 15, N-(4-Hydroxy-3-methoxybenzyl)-3,4-dihydroxyphenylacetamide]	7.84		
0.097 mol/mol	COc1cc(/C=C/C(=O)NCc2ccc(O)c(O)c2O)ccc1O [Example 3, N-(2,3,4-Trihydroxybenzyl)-4-hydroxy-3-methoxy-E-cinnamamide]	11.7		
0.043 mol/mol	O=C(/C=C/c1ccc(O)c(O)c1)NCc1ccc(O)c(O)c1 [Example 11, N-(3,4-Dihydroxybenzyl)-3,4-dihydroxy-E-cinnamamide]	14.9		
0.094 mol/mol	COc1cc(CCC(=O)NCc2ccc(O)c(O)c2)ccc1O [Example 7, N-(3,4-Dihydroxybenzyl)-3-(4-hydroxy-3-methoxyphenyl)-propanamide]	7.7		
0.054 mol/mol	O=C(/C=C/c1ccc(O)c(O)c1)NCc1ccc(O)c(O)c1O [Example 14, N-(2,3,4-Trihydroxybenzyl)-3,4-dihydroxy-E-cinnamamide]	27.5		
0.07 mol/mol	O=C(CCc1ccc(O)c(O)c1)NCc1ccc(O)c(O)c1 [Example 9, N-(3,4-Dihydroxybenzyl)-3-(3,4-dihydroxyphenyl)-propanamide]	19.8		
0.1 mol/mol	COc1cc(/C=C/C(=O)NCc2ccc(O)c(O)c2O)cc(OC)c1O [Example 4, N-(2,3,4-Trihydroxybenzyl)-3,5-dimethoxy-4-hydroxy-E-cinnamamide]	17.3		
0.441 mol/mol	COc1cc(/C=C/C(=O)NCCc2ccc(O)cc2)ccc1O [N-(2-[4-hydroxyphenyl]ethyl)-4-hydroxy-3-methoxy-E-cinnamamide, reference compound]	1.41	no better than α-tocopherol	no better than α-tocopherol
0.0097 mol/mol	COc1cc(/C=C/C(=O)NCc2cc(O)c(O)c(O)c2)ccc1O [Example 5, N-(3,4,5-Trihydroxybenzyl)-4-hydroxy-3-methoxy-E-cinnamamide]	21.4		
0.053 mol/mol	O=C(Cc1ccc(O)c(O)c1)NCc1ccc(O)c(O)c1 [Example 16, N-(3,4-Dihydroxybenzyl)-3,4-dihydroxyphenylacetamide]	8.84		
0.089 mol/mol	COc1cc(CNC(=O)/C=C/c2ccc(O)c(O)c2)ccc1O [Example 12, N-(4-Hydroxy-3-methoxybenzyl)-3,4-dihydroxy-E-cinnamamide]	14.3		
0.097 mol/mol	COc1cc(/C=C/C(=O)NCc2ccc(O)c(O)c2)cc(OC)c1O [Example 2, N-(3,4-Dihydroxybenzyl)-3,5-dimethoxy-4-hydroxy-E-cinnamamide]	7.58		
0.103 mol/mol	COc1cc(CC(=O)NCc2ccc(O)c(O)c2)ccc1O [Example 6, N-(3,4-Dihydroxybenzyl)-4-hydroxy-3-methoxyphenylacetamide]	13.9		
0.240 mol/mol	Cc1cc(C(C)(C)C)c(O)c(C(C)(C)C)c1 [BHT, 2,6-di-tert-butyl-4-methylphenol, reference compound]	4.77		
